The text below walks through data of PMC10305147 (Life, 2023).

Data set [1] concerns the target T1, Acetylcholinesterase (AChE) (Electrophorus electricus, UniProt O42275).
Protocol: (§1) AChE was used to carry out the inhibitory assay using Ellman’s method [23] with modifications. A 0.05 M phosphate buffer, pH 8.0, was used in this protocol. Additionally, 60 µL of the herbal extract was mixed with the same volume of 0.5 mM enzyme solution and 120 µL of phosphate buffer, and kept at 25 °C for 15 min in a flat-bottom 96-well plate. Agent 5, 5′-dithiobis-2-nitrobenzoic acid (DTNB, 30 µL of 0.003 M) and 40 µL of 0.002 M acetylthiocholine iodide (ATCI) were added into the mixture to start the reaction. The reaction was maintained at 25 °C for 10 min before the absorbance was measured at the wavelength of 415 nm. For the control group, 60 µL of phosphate buffer was used instead of 60 µL of the herbal extract solution and the same condition was used for the calculation of enzyme inhibition activity using the following equation:AChE inhibition (%) = (AC − AE)/AC × 100, where AE is the absorbance value measured at 415 nm of the reaction containing herbal extract and enzyme, while AC is the absorbance value at 415 nm of the reaction containing enzyme and phosphate buffer instead of the herbal extract. The samples and berberine chloride (commercial AChE inhibitor) were dissolved in dimethylsulfoxide and eluted at various concentrations using a 0.05 M phosphate buffer and then used for the tests.
The target of data set [2] is T1, Acetylcholinesterase (AChE). Description: biochemical.
Protocol: as §1
For data set [3] the target is unchanged. Kind of data set: AChE enzyme inhibition assay (Ellman's method, modified). To be noted: IC50, different parts of ELC extracted by MeOH (Table 2). Background: DTNB colorimetry detects thiols as they appear.
Protocol: as §1
The test system of data set [4] is HuCC-T1 cancer cells. The conditions noted are these: cited from earlier work.
The test system of data set [5] is tumor cell lines. To be noted: EGCG from green tea at 40–200 microM; cited from earlier work.
Data set [6] relates to 293T normal cells. To be noted: cited from earlier work.
Data set [7] concerns WI38 normal cells. The conditions noted are these: EGCG from green tea at 40–200 microM; cited from earlier work.
Data set [8] has as its system normal cells. The conditions noted are these: cited from earlier work; for effect on normal cells: cause death for various cancer cells.
Data set [9] has as its system bronchial epithelial 16HBE normal cells. To be noted: cited from earlier work.
For data set [10] the following is noted: adjuvant chemotherapeutic agents; cited from earlier work.

T1 sequence (O42275 24-633): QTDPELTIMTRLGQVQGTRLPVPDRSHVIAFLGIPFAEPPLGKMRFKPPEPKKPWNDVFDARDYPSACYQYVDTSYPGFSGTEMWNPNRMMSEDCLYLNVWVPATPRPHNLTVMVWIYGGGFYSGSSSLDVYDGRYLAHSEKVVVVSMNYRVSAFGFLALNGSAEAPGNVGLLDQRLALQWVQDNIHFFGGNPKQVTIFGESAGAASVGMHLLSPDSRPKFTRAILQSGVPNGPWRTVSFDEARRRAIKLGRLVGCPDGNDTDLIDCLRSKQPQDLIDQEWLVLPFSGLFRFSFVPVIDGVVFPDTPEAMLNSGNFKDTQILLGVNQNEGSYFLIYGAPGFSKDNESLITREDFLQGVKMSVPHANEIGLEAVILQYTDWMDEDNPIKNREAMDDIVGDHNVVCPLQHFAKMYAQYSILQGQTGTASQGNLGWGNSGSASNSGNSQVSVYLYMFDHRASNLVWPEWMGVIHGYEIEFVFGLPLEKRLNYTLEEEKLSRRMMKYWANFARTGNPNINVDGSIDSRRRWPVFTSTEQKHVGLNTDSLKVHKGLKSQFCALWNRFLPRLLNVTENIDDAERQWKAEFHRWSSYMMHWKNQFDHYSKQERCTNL

The term inhibition denotes the relative decrease from the control value, in per cent. As a reminder, the IC50 is the concentration that gives 50% inhibition. Low readings indicate higher potency, high ones lower potency. Consider `COc1ccc2cc3[n+](cc2c1OC)CCc1cc2c(cc1-3)OCO2` [Berberine chloride, berberine chloride], for which the inhibition in [1] came to 98.2 ± 1.8%. The IC50 in data set [2] is 934 µM; in data set [3] it was 972 µM.

Take `O=C(O[C@@H]1Cc2c(O)cc(O)cc2O[C@@H]1c1cc(O)c(O)c(O)c1)c1cc(O)c(O)c(O)c1` [Compd 12, epigallocatechin gallate]: in data set [4], the “toxicity on HuCC-T1 cancer cells” value is recorded as “toxic”. In data set [5], the “death of tumor cell lines” value is reported as “significant death”. Moreover, in data set [6], the “viability of 293T normal cells” value is “safe”. Besides, the “WI38 normal cells growth affected” value in [7] is recorded as 1%.

Turning to `Oc1cc(O)c2c(c1)O[C@H](c1ccc(O)c(O)c1)[C@H](O)C2` [Compd 13, epicatechin], in data set [8], the “effect on normal cells” value is given as “no effect on normal cells”.

In the case of `O=C(O[C@@H]1Cc2c(O)cc(O)cc2O[C@@H]1c1ccc(O)c(O)c1)c1cc(O)c(O)c(O)c1` [Compd 14, epicatechin gallate], in data set [8], the “effect on normal cells” value is given as “no effect on normal cells”.

With `O=c1cc(-c2ccc(O)cc2)oc2c([C@@H]3O[C@H](CO)[C@@H](O)[C@H](O)[C@H]3O)c(O)cc(O)c12` [Compd 15, vitexin], the “effect on bronchial epithelial 16HBE normal cells” value in [9] is given as “non-effect”.

On to `C[C@@H]1O[C@@H](OC[C@H]2O[C@@H](Oc3c(-c4ccc(O)c(O)c4)oc4cc(O)cc(O)c4c3=O)[C@H](O)[C@@H](O)[C@@H]2O)[C@H](O)[C@H](O)[C@H]1O` [Compd 17, rutin], for which the “toxicity and side effects via in vivo and clinical trials” value (shortened to “toxicity and side effects via”) in [10] was “trivial toxicity and side effects”.

For `O=c1cc(-c2ccc(O)cc2)oc2cc(O[C@@H]3O[C@H](CO)[C@@H](O)[C@H](O)[C@H]3O)cc(O)c12` [Compd 18, apigetrin], the “toxicity and side effects via” value in data set [10] is “trivial toxicity and side effects”.

With `O=c1c(O)c(-c2cc(O)c(O)c(O)c2)oc2cc(O)cc(O)c12` [Compd 19, myricetin], in [10], the “toxicity and side effects via” value was “trivial toxicity and side effects”.

Regarding `O=c1c(O)c(-c2ccc(O)c(O)c2)oc2cc(O)cc(O)c12` [Compd 20, quercetin], in [8], the “effects on normal cells” value was “no or low effects on normal cells”.

For `O=c1cc(-c2ccc(O)cc2)oc2cc(O)cc(O)c12` [Compd 21, apigenin], in [8], the “effects on normal cells” value is given as “no or low effects on normal cells”.
